Test results taken from publication PMC10914731, “Homo-BacPROTAC-induced degradation of ClpC1 as a strategy against drug-resistant mycobacteria” (Nature Communications, 2024).
In brackets after ≈: the same amount, converted by molar mass. Several values for one entry are separate records, joined by “and”; a condition that tells them apart may be missing. Identical values can stand only once. Like-named read-outs stand apart in the source and are kept apart here. Where a SMILES comes first, the peptide text is derived from it. [ ]: non-standard residue; d: D form. NMeLeu(5-OH,4R) = CN[C@@H](C[C@@H](C)CO)C(=O)O; Phe(βR-OMe) = CO[C@H](c1ccccc1)[C@H](N)C(=O)O; Trp(1-Me) = Cn1cc(C[C@H](N)C(=O)O)c2ccccc21; NMeL = CN[C@@H](CC(C)C)C(=O)O; Pra = C#CC[C@H](N)C(=O)O

Assays:
Enterobacter cloacae = assay: MIC ESKAPES panel, Enterobacter cloacae; format: cell-based
How it was run: (§1)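 CLSI broth microdilution was run in Mueller Hinton broth with an inoculum of 3–7 × 10^5 cfu/ml at 37 °C. Turbidity was read on day 2; clear wells indicated growth inhibition.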

[1] = system: replicating Mtb H37Rv cells; assay: Resazurin growth assay, replicating Mtb H37Rv (Supplementary Fig. 2); format: cell-based, Mycobacterium tuberculosis; conditions: three replicate columns
Mycobacterium avium = assay: microbe, parasite or virus in culture; format: cell-based
in vitro = conditions: human
How it was run: (§2)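 Permeability across Caco-2 monolayers was measured in both directions, apical-to-basolateral and basolateral-to-apical, in 10^-6 cm s-1. Efflux ratio = P(B−A)/P(A−B). Intrinsic permeability is the mean of P(A−B) and P(B−A).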

Caco-2 monolayers = assay: in vitro
How it was run: as §2

[2] = target: endogenous ClpC1 in Msm #607 cells (Mycolicibacterium smegmatis, UniProt A0R574); format: cell-based, M. smegmatis
[3] = target: ClpC1-NTD substrate, M. tuberculosis ClpC1P1P2 (Mycobacterium tuberculosis, UniProt P9WPC9); assay: biochemical; format: biochemical; conditions: Mtb
Msm 607 = assay: microbe, parasite or virus in culture; format: cell-based
[4] = target: ClpC1 NTD protein (M. tuberculosis) (Mycobacterium tuberculosis, UniProt P9WPC9); assay: biochemical; format: binding; conditions: SPR
[5] = system: M. tuberculosis H37Rv (ATCC 27294); assay: microbe, parasite or virus in culture; format: cell-based
Mtb H37Rv = assay: Minimum bactericidal concentration (MBC), Mtb H37Rv; format: cell-based, Mycobacterium tuberculosis; conditions: Mycobacterium tuberculosis, H37RV
[6] = format: in vitro ADME, Human; conditions: clearance in hepatocytes
[7] = system: non-replicating cells of Mtb H37Rv; format: cell-based, Mycobacterium tuberculosis; conditions: three replicate columns
Enterococcus faecium = assay: MIC ESKAPES panel, Enterococcus faecium; format: cell-based
How it was run: as §1

Chain of endogenous ClpC1 in Msm #607 cells (A0R574 whole entry): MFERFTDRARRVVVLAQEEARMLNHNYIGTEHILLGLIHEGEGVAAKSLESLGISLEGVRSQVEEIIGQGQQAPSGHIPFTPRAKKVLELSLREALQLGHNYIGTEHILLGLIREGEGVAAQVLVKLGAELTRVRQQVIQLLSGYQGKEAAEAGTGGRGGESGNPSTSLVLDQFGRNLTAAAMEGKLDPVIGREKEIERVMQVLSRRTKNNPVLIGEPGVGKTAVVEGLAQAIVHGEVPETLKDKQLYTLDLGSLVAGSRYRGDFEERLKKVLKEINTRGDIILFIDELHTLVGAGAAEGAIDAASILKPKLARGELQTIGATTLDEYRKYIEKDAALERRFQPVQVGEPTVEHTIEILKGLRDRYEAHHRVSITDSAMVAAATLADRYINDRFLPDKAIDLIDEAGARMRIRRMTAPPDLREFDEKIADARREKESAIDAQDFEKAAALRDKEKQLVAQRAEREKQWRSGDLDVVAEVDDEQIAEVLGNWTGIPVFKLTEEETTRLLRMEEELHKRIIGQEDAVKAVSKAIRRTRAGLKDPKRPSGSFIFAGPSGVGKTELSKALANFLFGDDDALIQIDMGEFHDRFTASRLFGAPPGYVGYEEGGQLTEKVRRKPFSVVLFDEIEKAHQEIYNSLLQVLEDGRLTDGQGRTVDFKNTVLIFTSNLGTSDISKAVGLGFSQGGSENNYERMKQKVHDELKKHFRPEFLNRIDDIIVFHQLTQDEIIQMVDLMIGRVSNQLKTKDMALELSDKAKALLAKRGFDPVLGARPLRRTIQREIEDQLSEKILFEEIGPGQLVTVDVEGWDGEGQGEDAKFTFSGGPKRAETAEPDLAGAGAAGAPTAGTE
Chain of ClpC1 NTD protein (M. tuberculosis) (P9WPC9 1-156, looked up, natural form): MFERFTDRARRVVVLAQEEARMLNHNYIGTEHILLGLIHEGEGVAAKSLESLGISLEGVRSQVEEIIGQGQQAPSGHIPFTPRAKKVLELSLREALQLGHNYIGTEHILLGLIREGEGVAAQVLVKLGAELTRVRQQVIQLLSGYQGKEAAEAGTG
Chain of ClpC1-NTD substrate, M. tuberculosis ClpC1P1P2 (P9WPC5 whole entry): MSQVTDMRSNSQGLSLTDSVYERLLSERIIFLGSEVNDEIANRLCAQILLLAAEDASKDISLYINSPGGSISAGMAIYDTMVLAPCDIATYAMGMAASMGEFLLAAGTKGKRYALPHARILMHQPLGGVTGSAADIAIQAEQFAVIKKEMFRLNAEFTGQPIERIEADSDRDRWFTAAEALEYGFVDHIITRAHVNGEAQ
Chain of ClpC1-NTD substrate, M. tuberculosis ClpC1P1P2 (P9WPC9 whole entry): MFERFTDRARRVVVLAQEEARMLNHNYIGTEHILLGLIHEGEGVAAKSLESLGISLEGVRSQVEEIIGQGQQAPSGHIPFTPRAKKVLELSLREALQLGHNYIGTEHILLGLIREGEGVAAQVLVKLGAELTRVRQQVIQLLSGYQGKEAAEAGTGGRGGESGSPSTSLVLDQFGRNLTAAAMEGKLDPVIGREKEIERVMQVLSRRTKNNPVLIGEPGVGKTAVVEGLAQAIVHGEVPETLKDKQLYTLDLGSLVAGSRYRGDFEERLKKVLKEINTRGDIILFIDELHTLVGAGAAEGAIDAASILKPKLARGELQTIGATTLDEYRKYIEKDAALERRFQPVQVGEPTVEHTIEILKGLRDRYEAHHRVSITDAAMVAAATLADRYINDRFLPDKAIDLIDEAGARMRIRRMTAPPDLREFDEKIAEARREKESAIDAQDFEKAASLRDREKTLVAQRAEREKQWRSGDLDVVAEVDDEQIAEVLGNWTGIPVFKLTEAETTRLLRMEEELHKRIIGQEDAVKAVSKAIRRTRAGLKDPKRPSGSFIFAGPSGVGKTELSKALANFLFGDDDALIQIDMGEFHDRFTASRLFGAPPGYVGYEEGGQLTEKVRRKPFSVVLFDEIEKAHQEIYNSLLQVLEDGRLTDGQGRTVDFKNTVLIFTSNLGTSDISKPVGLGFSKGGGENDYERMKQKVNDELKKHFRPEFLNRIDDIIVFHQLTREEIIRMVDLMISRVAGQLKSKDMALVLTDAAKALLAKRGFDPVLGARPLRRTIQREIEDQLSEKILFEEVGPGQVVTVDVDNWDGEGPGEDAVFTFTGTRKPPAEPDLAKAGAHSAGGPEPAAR
Chain of ClpC1-NTD substrate, M. tuberculosis ClpC1P1P2 (P9WPC3 whole entry, further chain): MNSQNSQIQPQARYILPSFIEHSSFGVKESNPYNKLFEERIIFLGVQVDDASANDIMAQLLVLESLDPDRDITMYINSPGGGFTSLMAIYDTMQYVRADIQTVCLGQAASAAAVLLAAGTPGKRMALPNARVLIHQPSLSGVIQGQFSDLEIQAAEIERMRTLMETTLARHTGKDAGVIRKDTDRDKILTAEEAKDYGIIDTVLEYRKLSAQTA

## C#CC[C@@H]1NC(=O)[C@H](CC(C)C)N(C)C(=O)[C@H](C(C)C)NC(=O)[C@H]([C@H](OC)c2ccccc2)NC(=O)[C@H](C)NC(=O)[C@H](C[C@@H](C)CO)N(C)C(=O)[C@H](Cc2cn(C)c3ccccc23)NC1=O [Compound 10] (cyclo(A[Phe(βR-OMe)]V[NMeL][Pra][Trp(1-Me)][NMeLeu(5-OH,4R)]))
Enterobacter cloacae; Enterobacter cloacae, Gram negative, n = 3 well replicates
  MIC: > 50 µM
Enterobacter cloacae; Enterobacter cloacae, Gram-Negative Bacteria, replicates 1-3
  MIC: > 45.6 µg/mL
Enterobacter cloacae; Gram-Negative Bacteria, replicates 1-3
  MIC: >50 µM
[1]; Conc. 0.0488281 µM
  Supplementary Figure 2 dose-response value, replicating H37Rv cells: 96.6607 and 85.0023 and 97.6783
[1]; Conc. 0.0976562 µM
  Supplementary Figure 2 dose-response value, replicating H37Rv cells: 91.646 and 99.7213 and 83.381
[1]; Conc. 0.195312 µM
  Supplementary Figure 2 dose-response value, replicating H37Rv cells: 93.9637 and 88.7594 and 93.2053
[1]; Conc. 0.390625 µM
  Supplementary Figure 2 dose-response value, replicating H37Rv cells: 95.6392 and 103.405 and 93.9985
[1]; Conc. 0.78125 µM
  Supplementary Figure 2 dose-response value, replicating H37Rv cells: 94.5519 and 83.8686 and 95.6043
[1]; Conc. 1.5625 µM
  Supplementary Figure 2 dose-response value, replicating H37Rv cells: 94.1959 and 100.812 and 95.4766
[1]; Conc. 3.125 µM
  Supplementary Figure 2 dose-response value, replicating H37Rv cells: 91.4989 and 87.2697 and 84.1472
[1]; Conc. 6.25 µM
  Supplementary Figure 2 dose-response value, replicating H37Rv cells: 90.8682 and 96.9509 and 92.2612
[1]; Conc. 25 µM
  Supplementary Figure 2 dose-response value, replicating H37Rv cells: 58.5243 and 57.8085 and 53.4206
[1]; Conc. 50 µM
  Supplementary Figure 2 dose-response value, replicating H37Rv cells: 10.7146 and 27.4379 and 10.7068
[1]; Conc. 100 µM
  Supplementary Figure 2 dose-response value, replicating H37Rv cells: 10.7533 and 7.29 and 10.5908
Mycobacterium avium; Experiment 1, read-out: MIC Mycobacterium avium
  MIC: 12.5 µM
Mycobacterium avium; Experiment 2, three replicate columns
  MIC (µg/ml) Mycobacterium avium: 11.41 µg/mL (≈ 12.5 µM)
Mycobacterium avium; Experiment 2, three replicate columns, read-out: MIC (µM) Mycobacterium avium
  MIC: 12.5 µM
Mycobacterium avium; Mycobacterium avium, Experiment 1, read-out: MIC Mycobacterium avium
  MIC: 11.4 µg/mL
Mycobacterium avium; Mycobacterium avium, Experiment 2, three replicate columns, read-out: MIC (µM) Mycobacterium avium
  MIC: 12.5 µM
Mycobacterium avium; Mycobacterium avium, Experiment 2, three replicate columns, read-out: MIC (µg/ml) Mycobacterium avium
  MIC: 11.4 µg/mL
Mycobacterium avium; Mycobacterium avium, mean ± SD, read-out: MIC Mycobacterium avium
  MIC: 12.5 µM
In vitro; Caco-2, CACO permeability PEBA, basolateral to apical
  Papp B→A: 19 ×10⁻⁶ cm/s
In vitro; Caco-2, Caco-2 permeability P (A-B), apical to basolateral
  Papp A→B: < 0.1 ×10⁻⁶ cm/s
Caco-2 monolayers; basolateral to apical
  CACO permeability PEBA: 14 ×10⁻⁶ cm/s
Caco-2 monolayers; mean value of P(A−B) and P(B−A)
  Caco-2 Int. Perm: 7.1 10-6 cm s-1
[2]; 100 µM, Figure 5c, well replicates of 3 experiments
  ClpC1 peak area: 412581 and 373241 and 483939 and 462615 and 61275.5 and 294306 and 484139 and 455205 and 481589
[2]; Msm #607, 24 h, result in words
  intracellular degradation of ClpC1: did not induce degradation of ClpC1
[3]; Measurement 1-4, read-out: DC50, single measurements
  DC50: > 100000 nM
[3]; mean of the measurements, read-out: DC50, Mean
  DC50: > 100000 nM
Msm 607; Mycolicibacterium smegmatis, 607, read-out: MIC Msm 607
  MIC: 3.1 µM (≈ 2.83 µg/mL)
Msm 607; Mycolicibacterium smegmatis, 607, read-out: MIC Msm #607, individual example (Supplementary Table 11)
  MIC: 6.3 µM and 5.7 µg/mL
Msm 607; Mycolicibacterium smegmatis, 607, read-out: Msm 607 MIC, single determinations
  MIC: 3.12 µM (≈ 2.85 µg/mL)
Msm 607; Mycolicibacterium smegmatis, ATCC607, Set-1, read-out: MIC (Msm ATCC607) Set-1
  MIC: 3.12 µM and 2.85 µg/mL
Msm 607; Mycolicibacterium smegmatis, ATCC607, Set-2, read-out: MIC (Msm ATCC607) Set-2
  MIC: 6.25 µM and 5.71 µg/mL
Msm 607; Mycolicibacterium smegmatis, ATCC607, Set-3, done at a different day than Set 1 and Set 2, read-out: MIC (Msm ATCC607) Set-3
  MIC: 3.12 µM and 2.85 µg/mL
Msm 607; Mycolicibacterium smegmatis, ATCC607, mean of 3 experiments ± SD, read-out: MIC including standard deviations (Msm ATCC607)
  MIC: 4.16 µM and 3.8 µg/mL
[4]; individual measurements (source data), read-out: KD ClpC1-NTD
  Kd: 4.65 nM and 4.5 nM and 3.27 nM and 3.4 nM
[4]; read-out: ClpC1-NTD KD Mean ± SD
  Kd: 4 ± 0.7 nM
[5]; M. tuberculosis H37Rv 27294, single well replicates, read-out: MIC
  MIC: 3.125 µM (≈ 2.85 µg/mL)
[5]; Mycobacterium tuberculosis, M. tuberculosis H37Rv 27294, single well replicates, read-out: MIC
  MIC: 3.12 µM (≈ 2.85 µg/mL)
[5]; Mycobacterium tuberculosis, M. tuberculosis H37Rv strain, read-out: MIC Mtb H37Rv Mean ± SD
  MIC: 3.1 µM (≈ 2.83 µg/mL)
[5]; Mycobacterium tuberculosis, Mtb H37Rv (Supplementary Table 2), read-out: MIC Mtb
  MIC: 3.1 µM (≈ 2.83 µg/mL)
[5]; Mycobacterium tuberculosis, Mtb H37Rv, mean ± SD, n = 3 well replicates, read-out: MIC
  MIC: 3.1 µM (≈ 2.83 µg/mL)
[5]; Mycobacterium tuberculosis, Set 1, read-out: MIC (Mtb H37Rv) Set 1
  MIC: 3.13 µM and 2.85 µg/mL
[5]; Mycobacterium tuberculosis, Set 2, read-out: MIC (Mtb H37Rv) Set 2
  MIC: 3.13 µM and 2.85 µg/mL
[5]; Mycobacterium tuberculosis, Set 3, done at a different day than Set 1 and Set 2, read-out: MIC (Mtb H37Rv) Set 3
  MIC: 3.13 µM and 2.85 µg/mL
[5]; Mycobacterium tuberculosis, individual example (Supplementary Table 11), read-out: MIC Mtb H37Rv
  MIC: 3.1 µM and 2.9 µg/mL
[5]; Mycobacterium tuberculosis, individual measurements (source data), read-out: Mtb MIC
  MIC: 3.12 µM (≈ 2.85 µg/mL)
[5]; Mycobacterium tuberculosis, mean of 3 experiments +/- SD, unit taken from the sets above in the same table, read-out: MIC data (Mtb H37Rv) (+/- SD)
  MIC: 3.13 µM and 2.85 µg/mL
[5]; Mycobacterium tuberculosis, single determinations, read-out: Mtb MIC
  MIC: 3.12 µM (≈ 2.85 µg/mL)
[5]; individual measurements (source data), read-out: Mtb MIC
  MIC: 3.125 µM (≈ 2.85 µg/mL)
Mtb H37Rv; read-out: MBC (from Set 3) Mtb H37Rv
  MBC: 12.5 µM and 11.4 µg/mL
Mtb H37Rv; individual example, read-out: MBC Mtb H37Rv
  MBC: 12.5 µM and 11.4 µg/mL
[6]
  Hepatocyte Human: 12 %Qh
[7]; Conc. 0.0488281 µM
  Supplementary Figure 2 dose-response value, starvation-induced non-replicating H37Rv cells: 91.338 and 78.4072 and 99.8789
[7]; Conc. 0.0976562 µM
  Supplementary Figure 2 dose-response value, starvation-induced non-replicating H37Rv cells: 83.6098 and 87.8245 and 85.6175
[7]; Conc. 0.195312 µM
  Supplementary Figure 2 dose-response value, starvation-induced non-replicating H37Rv cells: 83.554 and 88.4379 and 86.5417
[7]; Conc. 0.390625 µM
  Supplementary Figure 2 dose-response value, starvation-induced non-replicating H37Rv cells: 81.2435 and 84.4384 and 85.1554
[7]; Conc. 0.78125 µM
  Supplementary Figure 2 dose-response value, starvation-induced non-replicating H37Rv cells: 80.3114 and 85.7211 and 82.4466
[7]; Conc. 1.5625 µM
  Supplementary Figure 2 dose-response value, starvation-induced non-replicating H37Rv cells: 81.8012 and 82.096 and 79.8971
[7]; Conc. 3.125 µM
  Supplementary Figure 2 dose-response value, starvation-induced non-replicating H37Rv cells: 77.0129 and 81.0842 and 77.6981
[7]; Conc. 6.25 µM
  Supplementary Figure 2 dose-response value, starvation-induced non-replicating H37Rv cells: 66.8627 and 77.4193 and 82.598
[7]; Conc. 25 µM
  Supplementary Figure 2 dose-response value, starvation-induced non-replicating H37Rv cells: 73.1408 and 72.615 and 70.6073
[7]; Conc. 50 µM
  Supplementary Figure 2 dose-response value, starvation-induced non-replicating H37Rv cells: 65.1656 and 61.5724 and 59.0468
[7]; Conc. 100 µM
  Supplementary Figure 2 dose-response value, starvation-induced non-replicating H37Rv cells: 53.5574 and 51.9958 and 57.3099
Enterococcus faecium; Enterococcus faecium, Gram positive, n = 3 well replicates
  MIC: > 50 µM
Enterococcus faecium; Enterococcus faecium, Gram-Positive Bacteria, replicates 1-3
  MIC: > 45.6 µg/mL
Enterococcus faecium; Gram-Positive Bacteria, replicates 1-3
  MIC: >50 µM
